What all share (format): in vivo
In test [1] the test system is Amaranthus retroflexus. Description: Herbicidal effect pre-emergence. Particulars: 320 g/ha, visual grading after ca. 3 weeks vs untreated controls. An excerpt:
(§1) Herbicidal activities of the compounds of the formulae (G1) or (G2) according to the invention were investigated against the following harmful plants: • ALOMY=Alopecurus myosuroides • ECHCG=Echinochloa crus-galli • SETVI=Setaria viridis • ABUTH=Abutilon theophrasti • AMARE=Amaranthus retroflexus • PHBPU=Pharbitis purpurea • POLCO=Polygonum convolvulus (=Fallopia convolvulus) • STEME=Stellaria media • VIOTR=Viola tricolor
(§2) Seeds of mono- and dicotyledonous weed plants and crop plants are sown in wood-fiber pots in sandy loam and covered with soil. The compounds according to the invention, formulated in the form of wettable powders (WP) or as emulsifiable concentrates (EC), are then applied to the surface of the covering soil as aqueous suspension or emulsion, with the addition of 0.5% of an additive, at an application rate of 600 l of water/ha (converted).
(§3) Following treatment, the pots are placed in a greenhouse and kept under optimum growth conditions for the test plants. The visual grading of the damage to the test plants is carried out after ca. 3 weeks in comparison to untreated controls (herbicidal effect in percent (%): 100% effect=plants have died off, 0% effect=as control plants).

The test system of test [2] is Setaria viridis. Description: Herbicidal effect pre-emergence. Conditions: 320 g/ha, visual grading after ca. 3 weeks vs untreated controls.
Source text: as §1, §2, §3

Test [3] relates to Viola tricolor. Description: Herbicidal effect pre-emergence. Conditions: 320 g/ha, visual grading after ca. 3 weeks vs untreated controls.
Source text: as §1, §2, §3

Test [4] deals with Amaranthus retroflexus. The experiment in a line: Herbicidal effect post-emergence. Particulars: 320 g/ha, visual grading after ca. 3 weeks (Table 9).
Source text: as §1
(§4) Seeds of mono- and dicotyledonous weed plants and crop plants are sown in wood-fiber pots in sandy loam, covered with soil and grown in a greenhouse under controlled growth conditions. 2 to 3 weeks after sowing, the test plants are sprayed in the single-leaf stage. The compounds according to the invention, formulated in form of wettable powders (WP) or as emulsifiable concentrates (EC), are then sprayed onto the green plant parts as aqueous suspension or emulsion, with the addition of 0.5% of an additive, at an application rate of 600 l of water/ha (converted). After the test plants had been in the greenhouse for ca. 3 weeks under optimum growth conditions, the effect of the preparations is assessed visually in comparison with untreated controls (herbicidal effect in percent (%): 100% effect=plants have died off, 0% effect=as control plants).

Test [5] has as its system Setaria viridis. The experiment in a line: Herbicidal effect post-emergence. Conditions: 320 g/ha, visual grading after ca. 3 weeks (Table 9).
Source text: as §1, §4

Test [6] concerns Viola tricolor. Description: Herbicidal effect post-emergence. Particulars: 320 g/ha, visual grading after ca. 3 weeks (Table 9).
Source text: as §1, §4

As for `CC(=O)OCc1cc2c(NC(=O)C(F)(F)C(F)(F)F)nsc2c(=O)n1CC1CCCCC1` [Example I-035], the “herbicidal effect AMARE” value in test [1] was 100%. Also, the “herbicidal effect SETVI” value in test [2] is given as 100%. Further, the “herbicidal effect VIOTR” value in test [3] is recorded as 80%.
For `CC(C)c1cc2c(N)nsc2c(=O)n1CC1CCCCC1` [Example I-023, 3-amino-6-(cyclohexylmethyl)-5-isopropyl-isothiazolo[5,4-c]pyridin-7-one], the “herbicidal effect AMARE” value in test [1] and in test [4] was 100% in each case. The “herbicidal effect SETVI” value in test [2] and in test [5] was 90% in each case. Besides, the “herbicidal effect VIOTR” value is given as 90% in test [3] and 100% in test [6].
With `COCC#Cc1cn(CC2CCCCC2)c(=O)c2snc(N)c12` [Example I-103], the “herbicidal effect AMARE” value in test [1] is 90%; in test [4] it was 100%. Further, the “herbicidal effect SETVI” value came out at 80% in test [2] and 100% in test [5]. Also, the “herbicidal effect VIOTR” value in test [3] and in test [6] was 100% in each case.
For `C/C=C/c1cn(CC2CCCCC2)c(=O)c2snc(N)c12` [Example I-118], the “herbicidal effect AMARE” value in test [1] is 90%; in test [4] it was 100%. Moreover, the results for the “herbicidal effect SETVI” value in test [2] and in test [5] were 90% and 100%, respectively. Also, the “herbicidal effect VIOTR” value in test [3] amounted to 80%; in test [6], 100%.
Consider `COC(C)(C)C#Cc1cn(CC2CCCCC2)c(=O)c2snc(N)c12` [Example I-105], for which the “herbicidal effect AMARE” value in test [1] came to 100%. The “herbicidal effect SETVI” value in test [2] amounted to 100%. For the same compound, in test [3], the “herbicidal effect VIOTR” value is reported as 100%.
Regarding `Nc1nsc2c1C(O)CN(CC1CCCCC1)C2=O` (stereo not drawn) [Example I-144], the “herbicidal effect AMARE” value in test [1] was 100%. Also, in test [2], the “herbicidal effect SETVI” value amounted to 90%. Moreover, in test [3], the “herbicidal effect VIOTR” value is 100%.
For the compound `CCCc1cn(CC2CCCCC2)c(=O)c2snc(N)c12` [Example I-126], in test [4], the “herbicidal effect AMARE” value is 100%. In test [5], the “herbicidal effect SETVI” value was 80%. Also, in test [6], the “herbicidal effect VIOTR” value was found to be 100%.
As for `C/C(=N/OCC1CC1)c1cn(CC2CCCCC2)c(=O)c2snc(N)c12` [Example I-167], the “herbicidal effect AMARE” value in test [1] worked out at 100%. Besides, the “herbicidal effect SETVI” value in test [2] was determined as 100%. For the same compound, the “herbicidal effect VIOTR” value in test [3] was determined as 100%.
With `CCO/C=C/c1cn(CC2CCCCC2)c(=O)c2snc(N)c12` [Example I-113], in test [4], the “herbicidal effect AMARE” value was 100%. For the same compound, in test [5], the “herbicidal effect SETVI” value stood at 100%. The “herbicidal effect VIOTR” value in test [6] is on record as 100%.
For `O=C(Nc1nsc2c(=O)n(CC3CCCCC3)c(C3CC3)cc12)C(F)(F)C(F)(F)F` [Example I-022], the “herbicidal effect AMARE” value in test [1] was 100%. In addition, the “herbicidal effect SETVI” value in test [2] was determined as 100%. Moreover, in test [3], the “herbicidal effect VIOTR” value was 100%.
Consider `Cc1ccc(-c2cn(CC3CCCCC3)c(=O)c3snc(N)c23)o1` [Example I-132], for which the “herbicidal effect AMARE” value in test [4] is on record as 80%. Further, in test [5], the “herbicidal effect SETVI” value was determined as 100%. Further, in test [6], the “herbicidal effect VIOTR” value amounted to 90%.
Consider `CCCc1cc2c(NC(=O)C(F)(F)C(F)(F)F)nsc2c(=O)n1CC1CCCCC1` [Example I-032], for which the “herbicidal effect AMARE” value in test [1] was 80%. Further, the “herbicidal effect SETVI” value in test [2] was 100%. Further, in test [3], the “herbicidal effect VIOTR” value came out at 80%.
With `COCc1cc2c(NC(=O)C(F)(F)C(F)(F)F)nsc2c(=O)n1CC1CCCCC1` [Example I-034], the “herbicidal effect AMARE” value in test [1] turned out to be 100%. In addition, the “herbicidal effect SETVI” value in test [2] turned out to be 100%. Moreover, the “herbicidal effect VIOTR” value in test [3] turned out to be 100%.
For `CCc1cc2c(N)nsc2c(=O)n1CC1CCCCC1` [Example I-020], the “herbicidal effect AMARE” value in test [4] is 100%. In test [5], the “herbicidal effect SETVI” value is 100%. In test [6], the “herbicidal effect VIOTR” value amounted to 100%.
As for `Nc1nsc2c(=O)n(CC3CCCCC3)cc(C(=O)O)c12` [Example I-170], the “herbicidal effect AMARE” value in test [1] was 100%. The “herbicidal effect SETVI” value in test [2] came out at 100%. For the same compound, the “herbicidal effect VIOTR” value in test [3] came out at 90%.
As to `CC(=O)c1cn(CC2CCCCC2)c(=O)c2c1C(N)=NS2(=O)=O` [Example I-158], the “herbicidal effect AMARE” value in test [1] stood at 90%. Besides, the “herbicidal effect SETVI” value in test [2] turned out to be 80%. In addition, the “herbicidal effect VIOTR” value in test [3] came out at 100%.
In the case of `CCO/N=C(/C)c1cn(CC2CCCCC2)c(=O)c2snc(N)c12` [Example I-141], the “herbicidal effect AMARE” value in test [4] stood at 100%. Besides, in test [5], the “herbicidal effect SETVI” value is given as 100%. In addition, the “herbicidal effect VIOTR” value in test [6] turned out to be 100%.
As for `COC/C=C/c1cn(CC2CCCCC2)c(=O)c2snc(N)c12` [Example I-108], the “herbicidal effect AMARE” value in test [4] stood at 100%. Further, the “herbicidal effect SETVI” value in test [5] came to 100%. The “herbicidal effect VIOTR” value in test [6] is recorded as 100%.
Consider `CC(O)c1cn(CC2CCCCC2)c(=O)c2snc(N)c12` (stereo not drawn) [Example I-147], for which the “herbicidal effect AMARE” value in test [4] came to 100%. Moreover, the “herbicidal effect SETVI” value in test [5] stood at 80%. Also, in test [6], the “herbicidal effect VIOTR” value came out at 100%.
With `C=CCc1cn(CC2CCCCC2)c(=O)c2snc(N)c12` [Example I-143], the “herbicidal effect AMARE” value in test [4] stood at 100%. In addition, the “herbicidal effect SETVI” value in test [5] came out at 100%. Besides, in test [6], the “herbicidal effect VIOTR” value worked out at 100%.
With `CCO/N=C(/C)c1cn(CC2CCCCC2)c(=O)c2snc(N)c12` [Example I-142], in test [4], the “herbicidal effect AMARE” value was 100%. Also, in test [5], the “herbicidal effect SETVI” value was determined as 100%. Moreover, the “herbicidal effect VIOTR” value in test [6] was determined as 80%.
On to `CCC(=O)OCc1cc2c(N)nsc2c(=O)n1CC1CCCCC1` [Example I-046], for which the “herbicidal effect AMARE” value in test [1] is 100%. The “herbicidal effect SETVI” value in test [2] worked out at 100%. The “herbicidal effect VIOTR” value in test [3] came to 90%.
`CC(O)c1cc2c(N)nsc2c(=O)n1CC1CCCCC1` (stereo not drawn) [Example I-072]: the “herbicidal effect AMARE” value in test [4] stood at 100%. The “herbicidal effect SETVI” value in test [5] came to 80%. Moreover, in test [6], the “herbicidal effect VIOTR” value amounted to 100%.
On to `O=C(Nc1nsc2c(=O)n(CC3CCCCC3Cl)cc(Cl)c12)C(F)F` (racemic) [Example I-159], for which the “herbicidal effect AMARE” value in test [1] was 100%. In addition, the “herbicidal effect SETVI” value in test [2] is recorded as 100%. Also, the “herbicidal effect VIOTR” value in test [3] came to 100%.
`Nc1nsc2c(=O)n(CC3CCCCC3Cl)cc(Cl)c12` (racemic) [Example I-155]: in test [1], the “herbicidal effect AMARE” value is 80%. In addition, the “herbicidal effect SETVI” value in test [2] turned out to be 100%. In addition, the “herbicidal effect VIOTR” value in test [3] was 100%.
For `CO/N=C(/C)c1cn(CC2CCCCC2)c(=O)c2snc(N)c12` [Example I-134], the “herbicidal effect AMARE” value in test [4] is 100%. Also, the “herbicidal effect SETVI” value in test [5] stood at 80%. The “herbicidal effect VIOTR” value in test [6] turned out to be 100%.
As to `CCc1cn(CC2CCCCC2)c(=O)c2snc(NC(=O)C(F)(F)C(F)(F)F)c12` [Example I-107], in test [1], the “herbicidal effect AMARE” value amounted to 100%. For the same compound, in test [2], the “herbicidal effect SETVI” value stood at 80%. The “herbicidal effect VIOTR” value in test [3] came to 100%.
For `CC(=O)OCc1cc2c(N)nsc2c(=O)n1CC1CCCCC1` [Example I-027], the “herbicidal effect AMARE” value in test [1] was 100%. Moreover, the “herbicidal effect SETVI” value in test [2] is 90%. In addition, in test [3], the “herbicidal effect VIOTR” value is listed as 90%.
On to `C=Cc1cc2c(N)nsc2c(=O)n1CC1CCCCC1` [Example I-051], for which the “herbicidal effect AMARE” value in test [1] is given as 90%. Also, in test [2], the “herbicidal effect SETVI” value is 90%. In addition, the “herbicidal effect VIOTR” value in test [3] turned out to be 100%.
For the compound `C=C(OCC)c1cn(CC2CCCCC2)c(=O)c2snc(N)c12` [Example I-133], in test [1], the “herbicidal effect AMARE” value is on record as 90%. Besides, the “herbicidal effect SETVI” value in test [2] was determined as 90%. In addition, in test [3], the “herbicidal effect VIOTR” value came out at 100%.
Consider `CCC(=O)Nc1nsc2c(=O)n(CC3CCCCC3Cl)cc(Cl)c12` (racemic) [Example I-173], for which the “herbicidal effect AMARE” value in test [1] came out at 90%. Besides, the “herbicidal effect SETVI” value in test [2] amounted to 100%. In addition, the “herbicidal effect VIOTR” value in test [3] is listed as 100%.
On to `CC#Cc1cn(CC2CCCCC2)c(=O)c2snc(N)c12` [Example I-115], for which, in test [4], the “herbicidal effect AMARE” value came out at 100%. Also, the “herbicidal effect SETVI” value in test [5] worked out at 100%. In addition, the “herbicidal effect VIOTR” value in test [6] was 100%.
In the case of `CCC(=O)Nc1nsc2c(=O)n(CC3CCCCC3)c(COC)cc12` [Example I-033], in test [1], the “herbicidal effect AMARE” value was found to be 100%. Further, in test [2], the “herbicidal effect SETVI” value is reported as 100%. Moreover, in test [3], the “herbicidal effect VIOTR” value was determined as 100%.

Source of the values: patent publication US10842152B2, “Isothiazolo-based bicycles, processes for their preparation and their use as herbicides and/or plant growth regulators” (Bayer CropScience Aktiengesellschaft, priority 2017, dated 2020).
